Test results taken from US7790724B2, “c-fms kinase inhibitors” (Janssen Pharmaceutica N.V., priority 2003, dated 2010).
Where a name gives a salt, the structure may show the parent alone. Read-outs that look alike come from different tables or passages of the source.

Target: T1, c-fms (Homo sapiens, UniProt P07333)
T1 construct: 3DP
Test: autophosphorylation, fluorescence polarization competition immunoassay for c-fms inhibition
Type: biochemical
Conditions: for inhibition at 10 µM: read-out: % Inhibition (at 10 μM); for inhibition at 2 µM: @ 2 μM compound (values marked *)
Protocol: The assay was performed in black 96-well microplates (LJL BioSystems). The assay buffer used was 100 mM HEPES, pH 7.5, 1 mM DTT, 0.01% (v/v) Tween-20. Compounds were diluted in assay buffer containing 4% DMSO just prior to the assay. […] The kinase reaction was initiated by adding 2 μL of 5 mM ATP (Sigma) in assay buffer. The final concentrations in the assay were 10 nM c-fms, 1 mM ATP, 5 mM MgCl2, 2% DMSO. Control reactions were ran in each plate: in positive and negative control wells, assay buffer (made 4% in DMSO) was substituted for the compound; in addition, positive control wells received 1.2 μL of 50 mM EDTA.
The plates were incubated at room temperature for 45 min. At the end of the incubation, the reaction was quenched with 1.2 μL of 50 mM EDTA (EDTA was not added to the positive control wells at this point; see above). Following a 5-min incubation, each well received 10 μL of a 1:1:3 mixture of anti-phosphotyrosine antibody, 10×, PTK green tracer, 10× (vortexed), FP dilution buffer, respectively (all from PanVera, cat. # P2837). The plate was covered, incubated for 30 min at room temperature and the fluorescence polarization was read on the Analyst. […] The reported IC50 values are averages of three independent measurements.

[1] = 10 nM c-fms, 1 mM ATP, averages of three independent measurements, read-out: IC50
[2] = determined in a similar fashion for Examples 11-68, read-out: IC-50 (activites below 1 μM)

T1 sequence (P07333 20-972): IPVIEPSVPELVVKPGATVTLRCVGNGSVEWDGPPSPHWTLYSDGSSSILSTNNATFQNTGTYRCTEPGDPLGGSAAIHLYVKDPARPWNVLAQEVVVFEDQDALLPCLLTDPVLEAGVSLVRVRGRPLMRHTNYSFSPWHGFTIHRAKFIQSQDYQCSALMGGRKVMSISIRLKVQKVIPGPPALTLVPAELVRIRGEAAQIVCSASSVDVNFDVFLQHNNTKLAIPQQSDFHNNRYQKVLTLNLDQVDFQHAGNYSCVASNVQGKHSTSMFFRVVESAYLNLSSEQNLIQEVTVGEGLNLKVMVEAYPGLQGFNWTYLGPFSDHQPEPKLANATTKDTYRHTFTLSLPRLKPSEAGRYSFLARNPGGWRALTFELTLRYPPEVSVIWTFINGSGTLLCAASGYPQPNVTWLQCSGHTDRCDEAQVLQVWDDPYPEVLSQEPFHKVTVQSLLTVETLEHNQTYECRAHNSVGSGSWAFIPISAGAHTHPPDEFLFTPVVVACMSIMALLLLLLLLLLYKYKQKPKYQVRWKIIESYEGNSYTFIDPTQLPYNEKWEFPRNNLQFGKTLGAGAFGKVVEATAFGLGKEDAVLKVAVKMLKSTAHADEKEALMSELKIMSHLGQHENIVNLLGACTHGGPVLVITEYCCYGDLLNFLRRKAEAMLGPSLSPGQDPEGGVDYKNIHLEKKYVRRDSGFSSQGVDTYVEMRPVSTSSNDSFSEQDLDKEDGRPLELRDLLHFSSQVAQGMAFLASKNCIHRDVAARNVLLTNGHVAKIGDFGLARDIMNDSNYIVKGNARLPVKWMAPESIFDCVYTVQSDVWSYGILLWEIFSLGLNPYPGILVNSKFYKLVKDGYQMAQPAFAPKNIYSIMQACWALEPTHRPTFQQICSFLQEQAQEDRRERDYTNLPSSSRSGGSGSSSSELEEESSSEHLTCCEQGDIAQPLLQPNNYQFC

Compound	IC50 [1] [nM]	inhibition at 10 µM (at 10 μM compound) [%]	also measured
O=C(Nc1ccccc1N1CCC(CCO)CC1)c1ccc([N+](=O)[O-])o1	< 1000	100	–
CC1CCN(c2ccccc2NC(=O)c2ccc(C#N)o2)CC1	< 1000	97	–
N#Cc1ccc(C(=O)Nc2ccccc2N2CCCCC2)o1	< 1000	99	–
O=C(Nc1ccccc1N1CCCCC1)c1cc([N+](=O)[O-])c[nH]1	< 1000	99	–
O=C(Nc1cc(CO)ccc1N1CCCCC1)c1ccc([N+](=O)[O-])o1	< 1000	100	–
N#Cc1ccc(C(=O)Nc2c(F)cccc2N2CCCCC2)o1	> 1000	61	–
CC1CCN(c2ccccc2NC(=O)c2ccc([N+](=O)[O-])o2)CC1	–	–	IC50: < 1000 nM; inhibition at 10 µM: 92%
O=C(Nc1ccccc1N1CCC(CO)CC1)c1ccc([N+](=O)[O-])o1	< 1000	100	–
O=C(Nc1ccccc1N1CCC(O)CC1)c1ccc([N+](=O)[O-])o1	< 1000	98	–
O=C(Nc1ccccc1N1CCCCCC1)c1ccc([N+](=O)[O-])o1	< 1000	100	–
O=C(Nc1ccccc1N1CCCCC1)c1ccc([N+](=O)[O-])o1	–	91	–
COc1ccc(N2CCCCC2)c(NC(=O)c2ccc(C#N)o2)c1	< 1000	–	inhibition at 2 µM: 99%
CC1CCCN(c2ccccc2NC(=O)c2ccc([N+](=O)[O-])o2)C1 (stereo not drawn)	< 1000	96	–
Cc1cccc(N2CCCCC2)c1NC(=O)c1ccc(C#N)o1	> 1000	50	–
O=C(Nc1ccccc1N1CCCCC1)c1cc([N+](=O)[O-])ccn1	> 1000	90	–
O=C(Nc1ccccc1N1CCOCC1)c1ccc([N+](=O)[O-])o1	> 1000	89	–
O=C(Nc1ccccc1N1CCCCC1)c1ccc(Cl)o1	> 1000	88	–
C[C@H]1CN(c2ccccc2NC(=O)c2ccc([N+](=O)[O-])o2)C[C@H](C)O1	> 1000	80	–
O=C(Nc1ccccc1N1CCCCC1)c1cccc([N+](=O)[O-])c1	> 1000	77	–
O=C(Nc1ccccc1N1CCCCC1)c1ccc(Br)o1	> 1000	68	–
CC(=O)c1ccc(C(=O)Nc2ccccc2N2CCCCC2)s1	> 1000	60	–
C[C@@H]1CN(c2ccccc2NC(=O)c2ccc([N+](=O)[O-])o2)C[C@H](C)O1	> 1000	72	–

Compound	IC50 [1] [nM]	inhibition at 10 µM (at 10 μM compound) [%]	also measured
O=C(Nc1ccccc1N1CCCCC1)c1n[nH]cc1[N+](=O)[O-]	> 1000	61	–
CCOc1ccccc1NC(=O)c1ccc([N+](=O)[O-])o1	> 1000	56	–
O=C(O)c1ccc(C(=O)Nc2ccccc2N2CCCCC2)o1	> 1000	24	–
O=Cc1ccc(C(=O)Nc2ccccc2N2CCCCC2)o1	> 1000	86	–
N#Cc1ccc(C(=O)Nc2ccccc2N2CCC(O)CC2)o1	> 1000	–	inhibition at 2 µM: 90%
N#Cc1ccc(C(=O)Nc2ccccc2N2CCC(CCO)CC2)o1	< 1000	–	inhibition at 2 µM: 97%
O=C(Nc1cc(F)ccc1N1CCCCC1)c1ccc([N+](=O)[O-])o1	< 1000	–	–
N#Cc1ccc(C(=O)Nc2ccc(Cl)cc2N2CCCCC2)o1	< 1000	–	inhibition at 2 µM: 90%
N#Cc1ccc(C(=O)Nc2ccc(F)cc2N2CCCCC2)o1	< 1000	–	inhibition at 2 µM: 94%
CS(=O)(=O)NCc1ccc(N2CCCCC2)c(NC(=O)c2ccc(C#N)o2)c1	< 1000	–	inhibition at 2 µM: 100%
N#Cc1ccc(C(=O)Nc2cc(CNCC(O)CO)ccc2N2CCCCC2)o1 (stereo not drawn)	< 1000	–	inhibition at 2 µM: 93%
N#Cc1ccc(N2CCCCC2)c(NC(=O)c2ccc(C#N)o2)c1	< 1000	–	inhibition at 2 µM: 95%
O=C(Nc1ccccc1N1CCCCC1)c1cc([N+](=O)[O-])n[nH]1	> 1000	–	inhibition at 2 µM: 50%
N#Cc1ccc(C(=O)Nc2ccccc2N2CCC(CO)CC2)o1	< 1000	–	inhibition at 2 µM: 93%
CC(C)(O)c1ccc(NC(=O)c2nc(C#N)c[nH]2)c(C2=CCCCC2)c1 [Example 12, 4-Cyano-1H-imidazole-2-carboxylic acid [2-cyclohex-1-enyl-4-(1-hydroxy-1-methyl-ethyl)-phenyl]-amide]	–	–	IC50 [2]: < 1000 nM
COC(C)(C)c1ccc(NC(=O)c2nc(C#N)c[nH]2)c(C2=CCCCC2)c1 [Example 13, 4-Cyano-1H-imidazole-2-carboxylic acid [2-cyclohex-1-enyl-4-(1-methoxy-1-methyl-ethyl)-phenyl]-amide]	–	–	IC50 [2]: < 1000 nM
CC(C)(N)c1ccc(NC(=O)c2nc(C#N)c[nH]2)c(C2=CCCCC2)c1 [Example 14, 4-Cyano-1H-imidazole-2-carboxylic acid [4-(1-amino-1-methyl-ethyl)-2-cyclohex-1-enyl-phenyl]-amide, acetic acid salt]	–	–	IC50 [2]: < 1000 nM
CC(C)c1ccc(NC(=O)c2nc(C#N)c[nH]2)c(C2=CCCCC2)c1 [Example 22, 4-Cyano-1H-imidazole-2-carboxylic acid (2-cyclohex-1-enyl-4-isopropyl-phenyl)-amide]	–	–	IC50 [2]: < 1000 nM
CC1CCN(c2ccccc2NC(=O)c2nc(C#N)c[nH]2)CC1 [Example 41, 4-Cyano-1H-imidazole-2-carboxylic acid [2-(4-methyl-piperidin-1-yl)-phenyl]-amide trifluoroacetic acid salt]	–	–	IC50 [2]: < 1000 nM
CC1(C)CC=C(c2ncccc2NC(=O)c2nc(C#N)c[nH]2)CC1 [Example 42, 4-Cyano-1H-imidazole-2-carboxylic acid [2-(4,4-dimethyl-cyclohex-1-enyl)-pyridin-3-yl]-amide trifluoroacetic acid salt]	–	–	IC50 [2]: < 1000 nM
CC1(C)CCN(c2ncccc2NC(=O)c2nc(C#N)c[nH]2)CC1 [Example 63, 4-Cyano-1H-imidazole-2-carboxylic acid (4,4-dimethyl-3,4,5,6-tetrahydro-2H-[1,2′]bipyridinyl-3′-yl)-amide trifluoroacetic acid salt]	–	–	IC50 [2]: < 1000 nM
CC1(C)CC=C(c2ccccc2NC(=O)c2nc(C#N)c[nH]2)CC1 [Example 67, 4-Cyano-1H-imidazole-2-carboxylic acid [2-(4,4-dimethyl-cyclohex-1-enyl)-phenyl]-amide]	–	–	IC50 [2]: < 1000 nM
